In US20100226994A1, “GRANULE, TABLET AND METHODS FOR PRODUCING THE SAME” (priority 2007, published 2010):

Experiment: Heat storage of granule or raw substance on a tray at 70° C., residual ratio of functional substance
Type: physicochemical

Row | Compound | residual ratio of lipoic acid (on a tray at 70° C. for 24 hours) [%] | residual ratio of vitamin E (on a tray at 70° C. for 72 hours) [%]
1 | O=C(O)CCCCC1CCSS1 (centres unmarked) [Comparative Example 8, Lipoic acid] | 40.5 | 
2 | Vitamin E [Comparative Example 10] |  | 96.5
